The results in this text go back to US11548892B1, “Transglutaminase 2 (TG2) inhibitors” (Sitari Pharma, Inc., priority 2018, dated 2023).

Where only a bound is given, the exact number is not on record here.

Sequence of TG2 (P21980 whole entry): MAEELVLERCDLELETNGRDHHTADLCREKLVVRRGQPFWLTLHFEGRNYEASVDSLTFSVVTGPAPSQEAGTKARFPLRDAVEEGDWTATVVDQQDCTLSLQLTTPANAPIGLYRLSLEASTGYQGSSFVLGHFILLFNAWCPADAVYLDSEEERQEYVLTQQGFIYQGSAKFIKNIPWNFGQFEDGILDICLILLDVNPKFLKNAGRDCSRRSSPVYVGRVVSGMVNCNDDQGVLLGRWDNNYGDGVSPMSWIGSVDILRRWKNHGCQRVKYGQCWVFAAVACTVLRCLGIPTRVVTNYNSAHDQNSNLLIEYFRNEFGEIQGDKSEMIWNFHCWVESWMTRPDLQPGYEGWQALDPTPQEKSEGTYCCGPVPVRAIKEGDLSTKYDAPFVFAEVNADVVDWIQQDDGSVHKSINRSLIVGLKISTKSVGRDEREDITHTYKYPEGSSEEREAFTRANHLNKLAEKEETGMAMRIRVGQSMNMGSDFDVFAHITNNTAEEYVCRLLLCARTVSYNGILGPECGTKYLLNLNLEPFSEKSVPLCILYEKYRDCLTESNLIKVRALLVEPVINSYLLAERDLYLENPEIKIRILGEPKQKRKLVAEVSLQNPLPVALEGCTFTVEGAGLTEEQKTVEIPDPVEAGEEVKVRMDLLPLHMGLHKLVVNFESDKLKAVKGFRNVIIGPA

The first test addresses TG2 (Homo sapiens (Human), UniProt P21980). As to the kind of experiment: Transglutaminase (TG) Inhibitor Assay. It counts as biochemical. The note with it: fluorescence of dansyl cadaverine cross-linked into N,N-dimethylated casein; 8 point titration. As to the method: Using the fluorescent amine donor, dansyl cadaverine (DSC), and the multiple glutamine bearing amine acceptor N,N-dimethylated casein (NMC), TG activity was measured via the change in fluorescence of cross-linked DSC into NMC over time.
As usually defined, the IC50 is the concentration that inhibits the measured activity by half. The low end stands for greater potency, the high end for weaker potency. `[2H]C([2H])(C/C=C/C(=O)N(C)C)C(OC(=O)N(C)C)C(=O)Nc1cccn(Cc2nc3cc(F)ccc3[nH]2)c1=O` (stereo not drawn) [Compound 54] came in with an IC50 of 0.5 to 5 µM. Still for that read-out and setting: the result for `COC(=O)N[C@@H](CC/C=C/C(=O)N(C)C)C(=O)Nc1cccn(Cc2cc3c(F)cnc(C=C(C)C)c3[nH]2)c1=O` [Compound 501] reads < 0.5 µM; that for `COC(=O)N[C@@H](CC/C=C/C(=O)N(C)C)C(=O)Nc1cccn(Cc2nc3c(CC(C)C)c(F)cnc3[nH]2)c1=O` [Compound 525], < 0.5 µM. On to `COC(=O)N[C@@H](CC/C=C/C(=O)N(C)C)C(=O)Nc1cncn(Cc2nc3cc(F)cc(CCC(F)(F)F)c3[nH]2)c1=O` [Compound 103, methyl N-[(E,1S)-6-(dimethylamino)-1-[[1-[[5-fluoro-7-(3,3,3-trifluoropropyl)-1H-benzimidazol-2-yl]methyl]-6-oxo-pyrimidin-5-yl]carbamoyl]-6-oxo-hex-4-enyl]carbamate], for which the IC50 was < 0.5 µM.

As to `[2H]C([2H])(C/C=C/C(=O)N(C)C)C(OC(=O)N(C)C)C(=O)Nc1cccn(Cc2cc3cccc(CC(C)C)c3n2C(=O)OC(C)(C)C)c1=O` (stereo not drawn) [Compound 247], the IC50 was in the range of 0.5 to 5 µM.

As to `COC(=O)N[C@@H](CC/C=C/C(=O)N(C)C)C(=O)Nc1cc(F)c(C)n(Cc2nc3c(F)cnc(CC(C)C)c3[nH]2)c1=O` [Compound 583], the concentration for half-maximal inhibition (IC50) was < 0.5 µM. The same measure, in the same setting: then `COC(=O)N[C@@H](CC/C=C/C(=O)N(C)C)C(=O)Nc1cccn(Cc2cc3ncc(F)c(CC4CCC4)c3[nH]2)c1=O` [Compound 585], with < 0.5 µM. The same measure, in the same setting: the result for `COC(=O)N(C)[C@@H](CC/C=C/C(=O)N(C)C)C(=O)Nc1cccn(Cc2nc3cccc(OCc4ccc(F)cc4F)c3[nH]2)c1=O` [Compound 115, methyl (S,E)-methyl(1-((1-((7-((2,4-difluorobenzyl)oxy)-1H-benzo[d]imidazol-2-yl)methyl)-2-oxo-1,2-dihydropyridin-3-yl)amino)-7-(dimethylamino)-1,7-dioxohept-5-en-2-yl)carbamate] reads < 0.5 µM; that for `[2H]C([2H])(C/C=C/C(=O)N(C)C)C(OC(=O)N(C)C)C(=O)Nc1cccn(Cc2cc3cc(F)cc(CC(C)C)c3[nH]2)c1=O` (stereo not drawn) [Compound 308], < 0.5 µM; that for `[2H]C([2H])(C/C=C/C(=O)N(C)C)C(OC(=O)N(C)C)C(=O)Nc1cccn(Cc2cc3cc(F)cc(CC(C)C)c3n2C(=O)OC(C)(C)C)c1=O` (stereo not drawn) [Compound 307], 0.5 to 5 µM. Same read-out and setting: then `[2H]C([2H])(C/C=C/C(=O)N(C)C)C(OC(=O)N(C)C)C(=O)Nc1cccn(Cc2cc3cc(F)cc(OCc4ccc(F)cc4F)c3n2C(=O)OC(C)(C)C)c1=O` (stereo not drawn) [Compound 303], with 5 to 100 µM; and `COC(=O)N[C@@H](CC/C=C/C(=O)N(C)C)C(=O)Nc1cccn(Cc2cc3ncnc(CC(C)C)c3[nH]2)c1=O` [Compound 459, methyl N-[(E,1S)-6-(dimethylamino)-1-[[1-[(4-isobutyl-5H-pyrrolo[3,2-d]pyrimidin-6-yl)methyl]-2-oxo-3-pyridyl]carbamoyl]-6-oxo-hex-4-enyl]carbamate], with < 0.5 µM; and `[2H]C([2H])(C/C=C/C(=O)N(C)C)C(OC(=O)N(C)C)C(=O)Nc1cccn(Cc2nc3cc(F)ccc3[nH]2)c1=O` (stereo not drawn) [Compound 55], with 0.5 to 5 µM. In the case of `CC(C)Cc1cccc2c1nc(Cn1cccc(NC(=O)[C@H](CC/C=C/C(N)=O)NC(=O)OCc3ccccc3)c1=O)n2C(=O)OC(C)(C)C` [Compound 3], the 50% inhibitory concentration (IC50) is < 0.5 µM. The same measure, in the same setting: the result for `COCc1ccc(NC(=O)[C@H](CC/C=C/C(=O)N(C)C)NC(=O)OC)c(=O)n1Cc1nc2c(F)cnc(CC(C)C)c2[nH]1` [Compound 599] reads < 0.5 µM; that for `COC(=O)N[C@@H](CC/C=C/C(=O)N(C)C)C(=O)Nc1cncn(Cc2nc3cc(F)ccc3n2C)c1=O` [Compound 174, methyl N-[(E,1S)-6-(dimethylamino)-1-[[1-[(5-fluoro-1-methyl-benzimidazol-2-yl)methyl]-6-oxo-pyrimidin-5-yl]carbamoyl]-6-oxo-hex-4-enyl]carbamate], 5 to 100 µM; that for `CN(C)C(=O)/C=C/CC[C@H](OC(=O)N(C)C)C(=O)Nc1cccn(Cc2nc3ccc(F)cc3n2Cc2ccc(F)cc2)c1=O` [Compound 208], 0.5 to 5 µM. Still for that read-out and setting: the result for `CN(C)C(=O)/C=C/CC[C@H](OC(=O)N(C)C)C(=O)Nc1cccn(Cc2nc3cc(F)ccc3n2Cc2ccc(F)cc2)c1=O` [Compound 207] reads 0.5 to 5 µM; that for `CN(C)C(=O)/C=C/CC[C@H](OC(=O)N(C)C)C(=O)Nc1ccnn(Cc2nc3cc(F)cc(CC(C)(C)C)c3[nH]2)c1=O` [Compound 85, [(E,1S)-6-(dimethylamino)-1-[[2-[[7-(2,2-dimethylpropyl)-5-fluoro-1H-benzimidazol-2-yl]methyl]-3-oxo-pyridazin-4-yl]carbamoyl]-6-oxo-hex-4-enyl]N,N-dimethylcarbamate], < 0.5 µM.

`COC(=O)N[C@@H](CC/C=C/C(=O)N(C)C)C(=O)Nc1cccn(Cc2nc3c(CC(C(F)(F)F)C(F)(F)F)cccc3n2C(=O)OC(C)(C)C)c1=O` [Compound 148, (S,E)-tert-butyl 2-((3-(7-(dimethylamino)-2-((methoxycarbonyl)amino)-7-oxohept-5-enamido)-2-oxopyridin-1(2H)-yl)methyl)-4-(3,3,3-trifluoro-2-(trifluoromethyl)propyl)-1H-benzo[d]imidazole-1-carboxylate] returned a half-maximal inhibitory concentration (IC50) of 0.5 to 5 µM. The same measure, in the same setting: then `COC(=O)N[C@@H](CC/C=C/C(=O)N(C)C)C(=O)Nc1cccn(Cc2nc3c(N(C)C)nc(C)nc3[nH]2)c1=O` [Compound 504], with 0.5 to 5 µM; and `CN(C)C(=O)/C=C/CC[C@H](OC(=O)N(C)C)C(=O)Nc1cccn(Cc2nc3ccc(F)cc3n2Cc2ccccc2)c1=O` [Compound 202, [(E,1S)-1-[[1-[(1-benzyl-6-fluoro-benzimidazol-2-yl)methyl]-2-oxo-3-pyridyl]carbamoyl]-6-(dimethylamino)-6-oxo-hex-4-enyl]N,N-dimethylcarbamate], with 0.5 to 5 µM; and `COC(=O)N[C@@H](CC/C=C/C(=O)N(C)C)C(=O)Nc1cncn(Cc2nc3c(CCC(F)(F)F)cc(F)cc3n2C(=O)OC(C)(C)C)c1=O` [Compound 102, tert-butyl 2-[[5-[[(E,2S)-7-(dimethylamino)-2-(methoxycarbonylamino)-7-oxo-hept-5-enoyl]amino]-6-oxo-pyrimidin-1-yl]methyl]-6-fluoro-4-(3,3,3-trifluoropropyl)benzimidazole-1-carboxylate], with < 0.5 µM. The same measure, in the same setting: the result for `CN(C)C(=O)/C=C/CC[C@H](NC(=O)OC(C)(C)C)C(=O)Nc1cccn(Cc2nc3cccc(C(O)C(C)(C)C)c3[nH]2)c1=O` (stereo partly drawn) [Compound 160, tert-butyl ((2S,E)-7-(dimethylamino)-1-((1-((7-(1-hydroxy-2,2-dimethylpropyl)-1H-benzo[d]imidazol-2-yl)methyl)-2-oxo-1,2-dihydropyridin-3-yl)amino)-1,7-dioxohept-5-en-2-yl)carbamate] reads < 0.5 µM; that for `CC(C)Cn1c(Cn2ccnc(NC(=O)[C@H](CC/C=C/C(=O)N(C)C)OC(=O)N(C)C)c2=O)cc2cc(F)ccc21` [Compound 344, [(E,1S)-6-(dimethylamino)-1-[[4-[(5-fluoro-1-isobutyl-indol-2-yl)methyl]-3-oxo-pyrazin-2-yl]carbamoyl]-6-oxo-hex-4-enyl]N,Ndimethylcarbamate], < 0.5 µM. On to `[2H]C([2H])(C/C=C/C(=O)N(C)C)C(OC(=O)N(C)C)C(=O)Nc1cccn(Cc2cc3cc(F)ccc3n2C(=O)OC(C)(C)C)c1=O` (stereo not drawn) [Compound 224], for which the IC50 was < 0.5 µM.

Still in this test, the particulars now being: fluorescence of dansyl cadaverine cross-linked into N,N-dimethylated casein; 8 point titration; listed as 101.
`COCc1ccc(NC(=O)[C@H](CC/C=C/C(=O)N(C)C)NC(=O)OC)c(=O)n1Cc1nc2c(F)cnc(CC(C)C)c2[nH]1` [Compound 599] registered an IC50 of 0.5 to 5 µM.
